Assay results taken from the supplement of paper PMC10307832.

Experiments:
Ispinesib = compound: Cc1ccc(C(=O)N(CCCN)[C@@H](c2nc3cc(Cl)ccc3c(=O)n2Cc2ccccc2)C(C)C)cc1 [Ispinesib]; experiment: relative viability (nuclei count vs DMSO), 5 days (fraction); higher = more cells survive
Summary of the method: (§1)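 Viability is treated-well nuclei as a fraction of vehicle-well nuclei, reported as the median across plates. Before counting, lung cancer cell lines were kept overnight at 37 °C in 1536-well plates, pinned with five √10-spaced library-drug doses on vehicle-anchored plates, and left 5 days without medium change, then fixed, permeabilised and Hoechst-stained in one step, imaged at 4× and counted by MetaXpress. A plate passed only if control CV was below 25% and at least one doubling occurred.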

Linsitinib = compound: C[C@]1(O)C[C@@H](c2nc(-c3ccc4ccc(-c5ccccc5)nc4c3)c3c(N)nccn32)C1 [Linsitinib]; experiment: as above
Summary of the method: as §1

Cell Line | relative viability (Ispinesib; 0.001 µM) | relative viability (Ispinesib; 0.003162 µM) | relative viability (Ispinesib; 0.01 µM) | relative viability (Ispinesib; 0.03162 µM) | relative viability (Ispinesib; 0.1 µM) | relative viability (Linsitinib; 0.01 µM) | relative viability (Linsitinib; 0.03162 µM) | relative viability (Linsitinib; 0.1 µM) | relative viability (Linsitinib; 0.3162 µM) | relative viability (Linsitinib; 1 µM) | relative viability (Linsitinib; 1 µM, anchor plate)
201T | 0.978 | 1.05 | 1.03 | 0.786 | 0.367 | 0.988 | 0.989 | 1.01 | 0.967 | 0.911 | 1.03
A549 | 1.1 | 0.983 | 1.31 | 0.568 | 0.109 | 0.929 | 0.978 | 0.963 | 0.729 | 0.615 | 0.601
A-427 | 1.05 | 1.11 | 0.955 | 0.261 | 0.246 | 1.02 | 1.11 | 0.985 |  | 0.858 | 1.13
ABC-1 | 1.01 | 1.01 | 0.979 | 0.314 | 0.367 | 0.88 | 0.789 | 0.993 | 0.617 | 0.533 | 0.859
BEN | 1.12 | 1.1 | 0.983 | 0.647 | 0.378 | 0.945 | 0.948 | 0.832 | 0.657 | 0.933 | 0.935
CAL-12T | 1.05 | 1.13 | 1.1 | 0.664 | 0.18 | 1.01 | 0.917 | 0.951 | 0.752 | 0.879 | 0.839
COR-L23 | 1.11 | 1.04 | 1.19 | 0.512 | 0.171 | 0.975 | 1.04 | 1.07 | 0.911 | 0.998 | 0.89
COR-L 105 | 1.1 | 0.901 | 0.766 | 0.397 | 0.34 | 0.884 | 0.864 | 0.875 | 0.709 | 0.761 | 0.96
Calu-6 | 1.15 | 0.996 | 0.689 | 0.18 | 0.19 | 0.946 | 0.892 | 1.01 | 0.862 | 0.857 | 0.96
ChaGo-K-1 | 1.05 | 1.06 | 1.12 | 0.91 | 0.354 | 1.04 | 0.962 | 1.02 | 0.681 | 0.882 | 
EBC-1 | 1.03 | 1.13 | 1.03 | 0.336 | 0.231 | 0.991 | 0.967 | 1.05 | 0.778 | 0.93 | 0.903
EKVX | 0.996 | 0.993 | 1.07 | 0.856 | 0.573 | 0.99 | 0.991 | 0.999 | 0.739 | 0.832 | 1.01
EMC-BAC-2 | 1.04 | 1.26 | 1.11 | 0.395 | 0.421 | 0.922 | 0.984 | 0.931 | 0.725 | 0.602 | 0.833
EPLC-272H | 0.868 | 1.04 | 0.909 | 0.342 | 0.151 | 1.02 | 1.01 | 0.799 |  | 0.879 | 1.19
H3255 | 0.999 | 1.15 | 1.02 | 0.701 | 0.335 | 0.872 | 0.933 | 0.927 | 0.74 | 0.896 | 0.972
HARA | 1.04 | 1.16 | 1.06 | 0.872 | 0.169 | 1.07 | 0.837 | 0.967 | 0.697 | 0.807 | 0.948

Cell Line | relative viability (Ispinesib; 0.001 µM) | relative viability (Ispinesib; 0.003162 µM) | relative viability (Ispinesib; 0.01 µM) | relative viability (Ispinesib; 0.03162 µM) | relative viability (Ispinesib; 0.1 µM) | relative viability (Linsitinib; 0.01 µM) | relative viability (Linsitinib; 0.03162 µM) | relative viability (Linsitinib; 0.1 µM) | relative viability (Linsitinib; 0.3162 µM) | relative viability (Linsitinib; 1 µM) | relative viability (Linsitinib; 1 µM, anchor plate)
HCC-15 | 1.08 | 1.07 | 1.09 | 0.473 | 0.197 | 1.07 | 0.887 | 0.984 | 0.383 | 0.675 | 0.89
HCC-44 | 0.974 | 1.07 | 1.04 | 0.883 | 0.186 | 0.964 | 0.967 | 0.96 | 0.668 | 0.659 | 0.702
HCC-78 | 0.943 | 1.04 | 1.08 | 0.533 | 0.791 | 0.794 | 1.03 | 0.816 | 0.868 | 0.699 | 0.538
HCC-366 | 1.03 | 1.03 | 1.08 | 0.935 | 0.0315 | 1 | 0.989 | 0.925 | 0.917 | 0.938 | 0.658
HCC-827 | 1.08 | 1.07 | 1.02 | 0.929 | 0.876 | 1.06 | 1.02 | 1.09 |  | 1.01 | 0.967
HOP-62 | 1.06 | 1.07 | 1.26 | 0.967 | 0.338 | 1 | 1.07 | 1.09 |  | 0.791 | 1.02
IA-LM | 1.02 | 1.15 | 1.22 | 0.952 | 0.197 | 1.01 | 0.983 | 0.824 | 0.802 | 0.646 | 0.619
LC-2-ad | 1.04 | 1.1 | 1.07 | 0.536 | 0.175 | 0.941 | 0.896 | 0.967 | 0.735 | 0.756 | 0.86
LCLC-97TM1 | 1.02 | 0.964 | 1.18 | 0.6 | 0.132 | 0.901 | 1.01 | 0.99 | 0.329 | 0.477 | 0.186
LCLC-103H | 1.05 | 1.07 | 1.04 | 0.691 | 0.601 | 1.01 | 0.89 | 0.976 | 0.823 | 0.879 | 1.06
LK-2 | 1.13 | 1.19 | 1.17 | 0.705 | 0.348 | 0.994 | 1.09 | 0.919 | 0.594 | 0.744 | 0.6
LOU-NH91 | 0.962 | 1.09 | 1.05 | 0.646 | 0.287 | 0.873 | 0.943 | 0.991 | 1 | 0.801 | 0.942
LU99A | 0.976 | 1.01 | 1.03 | 0.303 | 0.269 | 0.915 | 0.968 | 0.899 | 0.483 | 0.738 | 0.555
LXF-289 | 0.98 | 1.02 | 1.13 | 0.773 | 0.178 | 1.04 | 0.974 | 1.04 | 0.768 | 0.977 | 0.976
NCI-H23 | 0.859 | 1.06 | 1.04 | 0.298 | 0.226 | 1.06 | 0.862 | 0.903 | 0.509 | 0.578 | 0.631
